# Test system: DENV-1/45AZ5
# Experiment: NHP DENV-1 study, serum viral RNA RT-qPCR
# Type: in vivo, rhesus macaques
# Method: WRAIR is fully accredited by AAALAC International.
# Serum samples from macaques were checked for the presence of DENV-1 RNA. Viral RNA for RT–qPCR was extracted from 100–200 µl of serum using the QIAcube instrumentation and the QIAGEN Viral RNA extraction kits. The primers and fluorogenic probes used in the RT–qPCR assays have been previously described[63],[64]. DENV-1 RNA was detected in a 25 µl reaction containing 5 µl of extracted RNA sample, 10 pmol of dengue-specific primers and 5 pmol dengue probe in the reaction mixture from Superscript Ill Platinum One-Step Quantitative RT-PCR Kit (Invitrogen, Thermo Fisher Scientific), consisting of 0.5 µl Superscript III RT/Platinum mix, 12.5 µl 2× reaction mix and 0.05 µl ROX reference dye. The one-step RT–qPCR comprises a 30 min RT step at 50 °C and 2 min of Taq polymerase activation at 94 °C, followed by 40 cycles of PCR at 94 °C for 5 s and 53 °C for 35 s performed in an ABI 7500DX Fast Real Time PCR system. Each assay included positive, negative and non-template controls. The RNA copy number was calculated from a standard curve of tenfold serial dilutions made from RNA in vitro transcripts consisting of DENV-1 with known copy numbers. The LLOQ was 100 genomic copies per reaction.
# This sample size was sufficient to detect a significant difference in the number of infected animals in each of the groups as low as 83%. […] Sample processing and conducting of assays was performed by laboratory technicians not involved in the treatment/manipulation of the animals.
smiles,measurement,setting,value
COc1cc(N[C@H](C(=O)c2c[nH]c3ccc(OC(F)(F)F)cc23)c2ccc(Cl)cc2OC)cc(S(C)(=O)=O)c1 [JNJ-1802],qRT-PCR Assay Average GE/mL,"animal R9, Day 29, LOQ 100 GE/reaction",0.00E+00 GE/mL
same,qRT-PCR Assay Result,"animal R10, Day 0",Negative
same,qRT-PCR Assay Average GE/mL,"animal R10, Day 0, Assay LOQ = 100 GE/reaction",0.00E+00 GE/mL
same,qRT-PCR Assay Result,"animal R10, Day 1",Negative
same,qRT-PCR Assay Average GE/mL,"animal R10, Day 1, Assay LOQ = 100 GE/reaction",0.00E+00 GE/mL
same,qRT-PCR Assay Result,"animal R10, Day 2",Negative
same,qRT-PCR Assay Average GE/mL,"animal R10, Day 2, Assay LOQ = 100 GE/reaction",0.00E+00 GE/mL
same,qRT-PCR Assay Result,"animal R10, Day 3",Negative
same,qRT-PCR Assay Average GE/mL,"animal R10, Day 3, Assay LOQ = 100 GE/reaction",0.00E+00 GE/mL
same,qRT-PCR Assay Result,"animal R10, Day 4",Negative
same,qRT-PCR Assay Average GE/mL,"animal R10, Day 4, Assay LOQ = 100 GE/reaction",0.00E+00 GE/mL
same,qRT-PCR Assay Result,"animal R10, Day 5",Negative
same,qRT-PCR Assay Average GE/mL,"animal R10, Day 5, Assay LOQ = 100 GE/reaction",0.00E+00 GE/mL
same,qRT-PCR Assay Result,"animal R10, Day 6",Negative
same,qRT-PCR Assay Average GE/mL,"animal R10, Day 6, Assay LOQ = 100 GE/reaction",0.00E+00 GE/mL
same,qRT-PCR Assay Result,"animal R10, Day 7",Negative
same,qRT-PCR Assay Average GE/mL,"animal R10, Day 7, Assay LOQ = 100 GE/reaction",0.00E+00 GE/mL
same,qRT-PCR Assay Result,"animal R10, Day 8",Negative
same,qRT-PCR Assay Average GE/mL,"animal R10, Day 8, Assay LOQ = 100 GE/reaction",0.00E+00 GE/mL
same,qRT-PCR Assay Result,"animal R10, Day 9",Negative
same,qRT-PCR Assay Average GE/mL,"animal R10, Day 9, Assay LOQ = 100 GE/reaction",0.00E+00 GE/mL
same,qRT-PCR Assay Result,"animal R10, Day 10",Negative
same,qRT-PCR Assay Average GE/mL,"animal R10, Day 10, Assay LOQ = 100 GE/reaction",0.00E+00 GE/mL
same,qRT-PCR Assay Result,"animal R10, Day 11",Negative
same,qRT-PCR Assay Average GE/mL,"animal R10, Day 11, Assay LOQ = 100 GE/reaction",0.00E+00 GE/mL
same,qRT-PCR Assay Result,"animal R10, Day 14",Negative
same,qRT-PCR Assay Average GE/mL,"animal R10, Day 14, Assay LOQ = 100 GE/reaction",0.00E+00 GE/mL
same,qRT-PCR Assay Result,"animal R10, Day 29",Negative
same,qRT-PCR Assay Average GE/mL,"animal R10, Day 29, Assay LOQ = 100 GE/reaction",0.00E+00 GE/mL
same,qRT-PCR Assay Result,"animal R11, Day 0",Negative
same,qRT-PCR Assay Average GE/mL,"animal R11, Day 0, Assay LOQ = 100 GE/reaction",0.00E+00 GE/mL
same,qRT-PCR Assay Result,"animal R11, Day 1",Negative
same,qRT-PCR Assay Average GE/mL,"animal R11, Day 1, Assay LOQ = 100 GE/reaction",0.00E+00 GE/mL
same,qRT-PCR Assay Result,"animal R11, Day 2",Negative
same,qRT-PCR Assay Average GE/mL,"animal R11, Day 2, Assay LOQ = 100 GE/reaction",0.00E+00 GE/mL
same,qRT-PCR Assay Result,"animal R11, Day 3",Negative
same,qRT-PCR Assay Average GE/mL,"animal R11, Day 3, Assay LOQ = 100 GE/reaction",0.00E+00 GE/mL
same,qRT-PCR Assay Result,"animal R11, Day 4",Negative
same,qRT-PCR Assay Average GE/mL,"animal R11, Day 4, Assay LOQ = 100 GE/reaction",0.00E+00 GE/mL
same,qRT-PCR Assay Result,"animal R11, Day 5",Negative
same,qRT-PCR Assay Average GE/mL,"animal R11, Day 5, Assay LOQ = 100 GE/reaction",0.00E+00 GE/mL
same,qRT-PCR Assay Result,"animal R11, Day 6",Negative
same,qRT-PCR Assay Average GE/mL,"animal R11, Day 6, Assay LOQ = 100 GE/reaction",0.00E+00 GE/mL
same,qRT-PCR Assay Result,"animal R11, Day 7",Negative
same,qRT-PCR Assay Average GE/mL,"animal R11, Day 7, Assay LOQ = 100 GE/reaction",0.00E+00 GE/mL
same,qRT-PCR Assay Result,"animal R11, Day 8",Negative
same,qRT-PCR Assay Average GE/mL,"animal R11, Day 8, Assay LOQ = 100 GE/reaction",0.00E+00 GE/mL
same,qRT-PCR Assay Result,"animal R11, Day 9",Negative
same,qRT-PCR Assay Average GE/mL,"animal R11, Day 9, Assay LOQ = 100 GE/reaction",0.00E+00 GE/mL
same,qRT-PCR Assay Result,"animal R11, Day 10",Negative
same,qRT-PCR Assay Average GE/mL,"animal R11, Day 10, Assay LOQ = 100 GE/reaction",0.00E+00 GE/mL
same,qRT-PCR Assay Result,"animal R11, Day 11",Negative
same,qRT-PCR Assay Average GE/mL,"animal R11, Day 11, Assay LOQ = 100 GE/reaction",0.00E+00 GE/mL
same,qRT-PCR Assay Result,"animal R11, Day 14",Negative
same,qRT-PCR Assay Average GE/mL,"animal R11, Day 14, Assay LOQ = 100 GE/reaction",0.00E+00 GE/mL
same,qRT-PCR Assay Result,"animal R11, Day 29",Negative
same,qRT-PCR Assay Average GE/mL,"animal R11, Day 29, Assay LOQ = 100 GE/reaction",0.00E+00 GE/mL
same,qRT-PCR Assay Result,"animal R12, Day 0",Negative
same,qRT-PCR Assay Average GE/mL,"animal R12, Day 0, Assay LOQ = 100 GE/reaction",0.00E+00 GE/mL
same,qRT-PCR Assay Result,"animal R12, Day 1",Negative
same,qRT-PCR Assay Average GE/mL,"animal R12, Day 1, Assay LOQ = 100 GE/reaction",0.00E+00 GE/mL
same,qRT-PCR Assay Result,"animal R12, Day 2",Negative
same,qRT-PCR Assay Average GE/mL,"animal R12, Day 2, Assay LOQ = 100 GE/reaction",0.00E+00 GE/mL
same,qRT-PCR Assay Result,"animal R12, Day 3",Negative
same,qRT-PCR Assay Average GE/mL,"animal R12, Day 3, Assay LOQ = 100 GE/reaction",0.00E+00 GE/mL
same,qRT-PCR Assay Result,"animal R12, Day 4",Negative
same,qRT-PCR Assay Average GE/mL,"animal R12, Day 4, Assay LOQ = 100 GE/reaction",0.00E+00 GE/mL
same,qRT-PCR Assay Result,"animal R12, Day 5",Negative
same,qRT-PCR Assay Average GE/mL,"animal R12, Day 5, Assay LOQ = 100 GE/reaction",0.00E+00 GE/mL
same,qRT-PCR Assay Result,"animal R12, Day 6",Negative
same,qRT-PCR Assay Average GE/mL,"animal R12, Day 6, Assay LOQ = 100 GE/reaction",0.00E+00 GE/mL
same,qRT-PCR Assay Result,"animal R12, Day 7",Negative
same,qRT-PCR Assay Average GE/mL,"animal R12, Day 7, Assay LOQ = 100 GE/reaction",0.00E+00 GE/mL
same,qRT-PCR Assay Result,"animal R12, Day 8",Negative
same,qRT-PCR Assay Average GE/mL,"animal R12, Day 8, Assay LOQ = 100 GE/reaction",0.00E+00 GE/mL
same,qRT-PCR Assay Result,"animal R12, Day 9",Negative
same,qRT-PCR Assay Average GE/mL,"animal R12, Day 9, Assay LOQ = 100 GE/reaction",0.00E+00 GE/mL
same,qRT-PCR Assay Result,"animal R12, Day 10",Negative
same,qRT-PCR Assay Average GE/mL,"animal R12, Day 10, Assay LOQ = 100 GE/reaction",0.00E+00 GE/mL
same,qRT-PCR Assay Result,"animal R12, Day 11",Negative
same,qRT-PCR Assay Average GE/mL,"animal R12, Day 11, Assay LOQ = 100 GE/reaction",0.00E+00 GE/mL
same,qRT-PCR Assay Result,"animal R12, Day 14",Negative
same,qRT-PCR Assay Average GE/mL,"animal R12, Day 14, Assay LOQ = 100 GE/reaction",0.00E+00 GE/mL
same,qRT-PCR Assay Result,"animal R12, Day 29",Negative
same,qRT-PCR Assay Average GE/mL,"animal R12, Day 29, Assay LOQ = 100 GE/reaction",0.00E+00 GE/mL
